Assay results from the NIST ThermoML archive (doi:10.1021/acs.jced.8b00975).
± gives the expanded uncertainty stated by the source.

Test: xn = mol fraction of the nth substance listed
Conditions: Liquid, Vibrating tube method

C=C(C)C(=O)OCCN(C)C [2-(dimethylamino)ethyl methylpropenoate] + CCCCO
mass density [kg/m3]
Conditions	100 kPa	5000 kPa	10000 kPa	15000 kPa	20000 kPa	25000 kPa	30000 kPa	35000 kPa
303.15 K, x1 = 0.0302	–	–	–	–	823.91 ± 0.56	827.06 ± 0.57	830.08 ± 0.58	833.02 ± 0.6
303.15 K, x1 = 0.0602	–	–	–	–	830.9 ± 0.56	834.03 ± 0.57	837.07 ± 0.58	840.08 ± 0.59
303.15 K, x1 = 0.1007	–	–	–	–	839.57 ± 0.55	842.73 ± 0.56	845.81 ± 0.58	848.85 ± 0.59
303.15 K, x1 = 0.2007	–	–	–	–	858.69 ± 0.55	861.89 ± 0.56	865.03 ± 0.57	868.15 ± 0.58
303.15 K, x1 = 0.3007	–	–	–	–	874.67 ± 0.55	877.92 ± 0.56	881.1 ± 0.56	884.26 ± 0.57
303.15 K, x1 = 0.4013	–	–	–	–	888.16 ± 0.55	891.46 ± 0.55	894.68 ± 0.56	897.86 ± 0.57
303.15 K, x1 = 0.4512	–	–	–	–	894.08 ± 0.55	897.42 ± 0.55	900.69 ± 0.56	903.91 ± 0.57
303.15 K, x1 = 0.5007	–	–	–	–	899.51 ± 0.55	902.86 ± 0.55	906.16 ± 0.56	909.45 ± 0.56
303.15 K, x1 = 0.5502	–	–	–	–	904.73 ± 0.55	908.09 ± 0.55	911.42 ± 0.56	914.74 ± 0.56
303.15 K, x1 = 0.6045	–	–	–	–	909.9 ± 0.55	913.27 ± 0.55	916.62 ± 0.56	919.96 ± 0.56
303.15 K, x1 = 0.7005	–	–	–	–	918.19 ± 0.55	921.62 ± 0.55	925.01 ± 0.56	928.36 ± 0.56
303.15 K, x1 = 0.8026	–	–	–	–	925.8 ± 0.55	929.26 ± 0.56	932.68 ± 0.56	936.08 ± 0.56
303.15 K, x1 = 0.9026	–	–	–	–	932.32 ± 0.56	935.81 ± 0.56	939.25 ± 0.56	942.69 ± 0.57
303.15 K, x1 = 0.9303	–	–	–	–	934.04 ± 0.56	937.53 ± 0.56	940.98 ± 0.56	944.42 ± 0.57
303.15 K, x1 = 0.9616	–	–	–	–	935.89 ± 0.56	939.4 ± 0.56	942.88 ± 0.57	946.34 ± 0.57
313.15 K, x1 = 0.0302	801.72 ± 0.52	805.93 ± 0.53	809.83 ± 0.54	813.46 ± 0.55	816.91 ± 0.56	820.24 ± 0.57	823.51 ± 0.59	826.8 ± 0.6
313.15 K, x1 = 0.0603	808.58 ± 0.52	812.75 ± 0.53	816.62 ± 0.54	820.25 ± 0.55	823.69 ± 0.56	827.01 ± 0.57	830.28 ± 0.59	833.54 ± 0.6
313.15 K, x1 = 0.1019	817.15 ± 0.52	821.38 ± 0.53	825.29 ± 0.54	828.95 ± 0.55	832.41 ± 0.56	835.74 ± 0.57	839 ± 0.58	842.24 ± 0.59
313.15 K, x1 = 0.2001	835.66 ± 0.52	839.79 ± 0.53	843.65 ± 0.53	847.3 ± 0.54	850.79 ± 0.55	854.16 ± 0.56	857.46 ± 0.57	860.72 ± 0.58
313.15 K, x1 = 0.301	851.41 ± 0.52	855.57 ± 0.53	859.51 ± 0.53	863.24 ± 0.54	866.8 ± 0.55	870.21 ± 0.56	873.49 ± 0.57	876.67 ± 0.58
313.15 K, x1 = 0.3999	864.54 ± 0.52	868.7 ± 0.53	872.64 ± 0.54	876.4 ± 0.54	880 ± 0.55	883.45 ± 0.56	886.78 ± 0.57	890.02 ± 0.57
313.15 K, x1 = 0.4519	870.67 ± 0.52	874.82 ± 0.53	878.78 ± 0.54	882.54 ± 0.54	886.15 ± 0.55	889.61 ± 0.56	892.94 ± 0.56	896.17 ± 0.57
313.15 K, x1 = 0.5002	875.94 ± 0.53	880.09 ± 0.53	884.04 ± 0.54	887.81 ± 0.54	891.43 ± 0.55	894.9 ± 0.56	898.25 ± 0.56	901.51 ± 0.57
313.15 K, x1 = 0.5505	881.12 ± 0.53	885.27 ± 0.53	889.22 ± 0.54	893.01 ± 0.54	896.64 ± 0.55	900.13 ± 0.56	903.49 ± 0.56	906.74 ± 0.57
313.15 K, x1 = 0.6004	885.84 ± 0.53	890.02 ± 0.53	894 ± 0.54	897.79 ± 0.54	901.42 ± 0.55	904.91 ± 0.56	908.27 ± 0.56	911.52 ± 0.57
313.15 K, x1 = 0.701	894.49 ± 0.53	898.55 ± 0.53	902.51 ± 0.54	906.34 ± 0.55	910.04 ± 0.55	913.62 ± 0.56	917.04 ± 0.56	920.32 ± 0.57
313.15 K, x1 = 0.8004	901.91 ± 0.53	905.99 ± 0.54	909.92 ± 0.54	913.71 ± 0.55	917.39 ± 0.55	920.98 ± 0.56	924.48 ± 0.56	927.93 ± 0.57
313.15 K, x1 = 0.9	908.36 ± 0.54	912.45 ± 0.54	916.43 ± 0.55	920.31 ± 0.55	924.08 ± 0.56	927.72 ± 0.56	931.24 ± 0.57	934.63 ± 0.57
313.15 K, x1 = 0.9322	910.31 ± 0.54	914.45 ± 0.54	918.45 ± 0.55	922.31 ± 0.56	926.03 ± 0.56	929.63 ± 0.56	933.11 ± 0.57	936.46 ± 0.57
313.15 K, x1 = 0.9608	911.98 ± 0.54	916.12 ± 0.55	920.11 ± 0.55	923.96 ± 0.56	927.68 ± 0.56	931.27 ± 0.57	934.75 ± 0.57	938.13 ± 0.57
